According to US12662490B2, “Heterocyclic compounds” (Hoffmann-La Roche Inc., priority 2019, dated 2026):

molecular target: T1, MAGL (Homo sapiens, UniProt Q99685); test: 2-AG assay (MAGL inhibitory activity; hydrolysis of 2-arachidonoylglycerol to arachidonic acid followed by mass spectrometry); type: biochemical; details: 15 min preincubation at RT, 8 μM 2-arachidonoylglycerol, 30 min at RT, RapidFire MS readout
T1 sequence (Q99685 1-303): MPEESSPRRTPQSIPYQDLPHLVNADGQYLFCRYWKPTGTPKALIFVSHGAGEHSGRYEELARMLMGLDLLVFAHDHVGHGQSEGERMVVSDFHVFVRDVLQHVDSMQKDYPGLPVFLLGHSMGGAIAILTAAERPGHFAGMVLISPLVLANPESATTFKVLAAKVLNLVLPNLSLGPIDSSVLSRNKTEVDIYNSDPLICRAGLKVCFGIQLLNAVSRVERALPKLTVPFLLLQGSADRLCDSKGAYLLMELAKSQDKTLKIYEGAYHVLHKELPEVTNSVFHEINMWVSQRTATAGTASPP
Method in brief: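 Compounds (final 12.5 μM to […], 3-fold steps) preincubated 15 min at RT with MAGL ([…]) in 50 mM TRIS, 1 mM EDTA, Tween buffer. Reaction started with 8 μM 2-arachidonoylglycerol, run 30 min at RT, quenched with ACN containing d8-arachidonic acid. Arachidonic acid quantified by RapidFire SPE-triple quadrupole MS (negative ESI), activity from arachidonic acid/d8 ratio.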

SMILES | IC50
O=C(c1cccc(-c2c[nH]c(=O)o2)c1Cl)N1CCN2C[C@@](O)(c3ccc(Cl)c(Cl)c3)OC[C@@H]2C1 [Example 122, 5-[3-[(3R,9aS)-3-(3,4-dichlorophenyl)-3-hydroxy-1,4,6,7,9,9a-hexahydropyrazino[2,1-c][1,4]oxazine-8-carbonyl]-2-chloro-phenyl]-3H-oxazol-2-one] | 0.0486 µM
O=C(c1cccc(-c2c[nH]nc2F)c1Cl)N1CCN2C[C@@](O)(c3ccc(OC(F)F)cc3)OC[C@@H]2C1 [Example 69, [2-chloro-3-(3-fluoro-1H-pyrazol-4-yl)phenyl]-[(3R,9aS)-3-[4-(difluoromethoxy)phenyl]-3-hydroxy-1,4,6,7,9,9a-hexahydropyrazino[2,1-c][1,4]oxazin-8-yl]methanone] | 0.0518 µM
COc1cccc(C(=O)N2CCN3C[C@@](O)(c4cccc(F)c4F)OC[C@@H]3C2)c1Cl [Example 142, [(3R,9aS)-3-(2,3-difluorophenyl)-3-hydroxy-1,4,6,7,9,9a-hexahydropyrazino[2,1-c][1,4]oxazin-8-yl]-(2-chloro-3-methoxy-phenyl)methanone] | 0.332 µM
N#Cc1cc(-c2cc(F)cc(C(=O)N3CCN4C[C@@H](c5c[nH]c(C(F)(F)F)cc5=O)OC[C@@H]4C3)c2Cl)c[nH]1 [Example 132, 4-[3-[(3R,9aS)-3-[4-oxo-6-(trifluoromethyl)-1H-pyridin-3-yl]-3,4,6,7,9,9a-hexahydro-1H-pyrazino[2,1-c][1,4]oxazine-8-carbonyl]-2-chloro-5-fluoro-phenyl]-1H-pyrrole-2-carbonitrile] | 0.131 µM

Second part, the compound after the results:

IC50 | SMILES
0.0486 µM | O=C(c1cccc(N2CC3(COC3)C2)c1Cl)N1CCN2C[C@@H](c3ccc(F)c(Cl)c3)OC[C@@H]2C1 [Example 42, [(3R,9aS)-3-(3-chloro-4-fluoro-phenyl)-3,4,6,7,9,9a-hexahydro-1H-pyrazino[2,1-c][1,4]oxazin-8-yl]-[2-chloro-3-(2-oxa-6-azaspiro[3.3]heptan-6-yl)phenyl]methanone]
0.238 µM | CC#Cc1cc([C@@H]2CN3CCN(C(=O)c4cccc(OC)c4Cl)C[C@H]3CO2)ccc1F [Example 13, [(3R,9aS)-3-(4-fluoro-3-prop-1-ynyl-phenyl)-3,4,6,7,9,9a-hexahydro-1H-pyrazino[2,1-c][1,4]oxazin-8-yl]-(2-chloro-3-methoxy-phenyl)methanone]
0.144 µM | O=C(c1cccc(-c2n[nH]c(=O)o2)c1Cl)N1CCN2C[C@@H](c3ccc(F)c(Cl)c3)OC[C@@H]2C1 [Example 134, 5-[3-[(3R,9aS)-3-(3-chloro-4-fluoro-phenyl)-3,4,6,7,9,9a-hexahydro-1H-pyrazino[2,1-c][1,4]oxazine-8-carbonyl]-2-chloro-phenyl]-3H-1,3,4-oxadiazol-2-one]
0.182 µM | COc1cccc(C(=O)N2CCN3C[C@@H](c4ccc(-c5cnco5)c(Cl)c4)OC[C@@H]3C2)c1Cl [Example 137, [(3R,9aS)-3-(3-chloro-4-oxazol-5-yl-phenyl)-3,4,6,7,9,9a-hexahydro-1H-pyrazino[2,1-c][1,4]oxazin-8-yl]-(2-chloro-3-methoxy-phenyl)methanone]
